According to patent US20060235062A1, “Novel heterocyclic analogs of diphenylethylene compounds” (THERACOS, INC., priority 2002, published 2006):

What was measured:
PPAR-gamma = target: T1, PPAR-gamma (Homo sapiens, UniProt P37231); conditions: Rocchi et al, Mol Cell 8:737-47, 2001; cited from earlier work
T1 sequence (P37231 1-505): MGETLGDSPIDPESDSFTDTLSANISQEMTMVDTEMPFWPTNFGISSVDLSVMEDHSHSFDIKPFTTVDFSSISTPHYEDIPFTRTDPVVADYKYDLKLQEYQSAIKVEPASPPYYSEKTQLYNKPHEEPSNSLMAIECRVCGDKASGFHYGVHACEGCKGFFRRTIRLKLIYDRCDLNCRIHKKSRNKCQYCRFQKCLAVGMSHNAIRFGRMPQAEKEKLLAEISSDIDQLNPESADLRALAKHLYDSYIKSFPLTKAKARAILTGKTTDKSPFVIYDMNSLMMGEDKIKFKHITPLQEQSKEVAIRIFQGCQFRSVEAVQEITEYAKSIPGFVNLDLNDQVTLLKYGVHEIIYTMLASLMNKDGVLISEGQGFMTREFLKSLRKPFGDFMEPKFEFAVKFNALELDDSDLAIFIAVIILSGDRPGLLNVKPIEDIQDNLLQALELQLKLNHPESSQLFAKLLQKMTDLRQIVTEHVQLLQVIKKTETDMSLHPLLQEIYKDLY

3T3-L1 adipocytes = assay: Glucose uptake in differentiated 3T3-L1 adipocytes; assay type: cell-based
Description: Referring to FIG. 8 glucose uptake in 3T3-L1 differentiated adipocytes was measured after treatment with the test compound. The assay was conducted according to the method of Tafuri, Endocrinology, 137, 4706-4712 (1996). The serum-starved cells were treated with the test compound for 48 hours at different concentrations, then washed and incubated in glucose-free media for 30 minutes at 37° C. Then ^14C-deoxyglucose was added and uptake was monitored for 30 minutes under incubation. After washing, the cells were lysed (0.1% SIDS) and counted.
Basal glucose uptake was measured in differentiated 3T3-L1 adipocytes following the protocol of Tafuri (6) with modifications. Briefly, 3T3-L1 fibroblasts, obtained from ATCC (Manassas, Va.), were differentiated to adipocytes by treating cells with porcine insulin (1 μg/ml for 4 days), dexamethasone (0.25 μM for first 2 days) and isobutyl methyl xanthine (IBMX, 0.5 mM for first 2 days) (all from Sigma Chemicals, St Louis, Mo.) following the protocol of Frost and Lane (7). Differentiated adipocytes were incubated in Dulbecco's Modified Eagle Medium (DMEM) containing 10% fetal bovine serum (GibcoBRL, Gaithersburg, Md.) with various concentrations of Compound 11 or vehicle (0.1% DMSO) for 48 h in 24-well plates, in triplicate. Cells were washed with phosphate buffered saline (PBS, 150 mM NaCl, 1 mM KH2PO4, 3 mM Na2HPO4; pH 7.4) and incubated in glucose-free DMEM for 2 h at 37° C. The cells were washed 3 times with Krebs Ringer Phosphate Buffer (KRP). Glucose uptake was initiated by addition of 0.25 μCi 2-^14C(U)-deoxy-D-glucose (300 μCi/mmol, American Radiolabeled Chemicals Inc., St Louis, Mo.) per well and the cells incubated for 10 min at room temperature in the presence of 0.1 mmol cold 2-deoxy-D-glucose. Finally, the cells were washed three times with ice-cold PBS containing 10 mM cold glucose, lysed with 0.5% SDS, and counted in a scintillation counter (Beckman LS6500).

IkappaB = assay: LPS-stimulated phosphorylation of IkappaB in RAW 264.7 cells; assay type: cell-based; conditions: RAW 264.7 cells, 3, 10 or 30, LPS plus IFN-gamma, anti-phospho-IkappaB blot
NF-kB p65 = NF-kB p65 activation in LPS-stimulated RAW cells (ELISA); assay type: cell-based; conditions: 10 μM, 1 μg/ml LPS 15 min, FIG. 15
3T3-L1 fibroblasts = assay: Adipogenesis (triglyceride accumulation) in 3T3-L1 fibroblasts; conditions: 3T3-L1 fibroblasts, 0.1, 1, 10 μM, no dexamethasone, insulin, IBMX, FIG. 23A
Description: After two days of growth in 6-well plates, cells were treated either with vehicle (0.1% DMSO) or with compounds for ten days. Fresh medium with compounds or vehicle was replenished every 48 h. Cells were washed with PBS twice and fixed in 10% formalin (Sigma) in PBS. After washing in PBS, cells were stained with freshly diluted Oil Red O in isopropanol for 1 h at room temperature. The cells were washed five times with PBS and visualized under an Olympus BH2 microscope. Quantitative accumulation of triglyceride was also measured under similar experimental conditions, except in this case cells were plated in 100-mm tissue culture dishes. Triglyceride was extracted with methanol:chloroform (2:1) mixture. […] Extracted triglyceride was measured by a colorimetric assay (GPO-Trinder, Sigma) according to manufacturer instructions.
After 14 days cells were stained with Oil Red O, counterstained with methylene blue for visual assessment (FIG. 23B) and assayed for triglyceride accumulation.

HepG2 cells = assay: Glycogen synthesis in HepG2 cells; assay type: cell-based
COX-1 = target: T2, COX-1 (Mus musculus, UniProt P22437); assay: COX-1 activity in RAW cells; assay type: cell-based; conditions: 0.1-100 μM
T2 construct: aliquots used to determine COX-2 and COX-1 activity; endogenous in cells; host or cells: RAW (RAW 264.7) cells
T2 sequence (P22437 27-602): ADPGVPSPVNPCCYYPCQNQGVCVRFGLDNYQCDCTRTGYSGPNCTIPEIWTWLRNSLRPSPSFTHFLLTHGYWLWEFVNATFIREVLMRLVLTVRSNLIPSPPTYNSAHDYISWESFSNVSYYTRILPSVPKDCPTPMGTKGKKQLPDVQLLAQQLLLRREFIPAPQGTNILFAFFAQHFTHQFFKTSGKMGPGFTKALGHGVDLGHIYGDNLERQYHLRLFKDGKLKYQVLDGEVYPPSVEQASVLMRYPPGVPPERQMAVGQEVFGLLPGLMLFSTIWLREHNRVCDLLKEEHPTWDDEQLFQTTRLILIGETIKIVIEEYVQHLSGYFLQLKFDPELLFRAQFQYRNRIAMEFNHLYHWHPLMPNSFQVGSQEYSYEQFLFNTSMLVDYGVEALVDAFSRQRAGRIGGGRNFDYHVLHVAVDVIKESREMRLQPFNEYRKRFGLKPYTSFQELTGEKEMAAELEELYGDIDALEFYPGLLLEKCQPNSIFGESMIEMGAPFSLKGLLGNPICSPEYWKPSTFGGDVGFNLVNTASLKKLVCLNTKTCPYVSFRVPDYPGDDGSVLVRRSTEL
Description: (§1) After 1 hour LPS (0.1 pg/mL) was added and cells were incubated an additional 6 hours. Cell supernatant was then collected, aliquoted and frozen at −70° C., and aliquots used to determine COX-2 and COX-1 activity. Compound 11, but not rosiglitazone, inhibited the activity of COX-2 (as measured by PGE2 production in a 50 μl sample).

COX-2 = target: T3, COX-2 (Mus musculus, UniProt Q05769); assay: LPS-induced COX-2 activity in RAW cells (PGE2 production); assay type: cell-based; conditions: 0.1-100 μM, FIG. 12
T3 sequence (Q05769 18-604): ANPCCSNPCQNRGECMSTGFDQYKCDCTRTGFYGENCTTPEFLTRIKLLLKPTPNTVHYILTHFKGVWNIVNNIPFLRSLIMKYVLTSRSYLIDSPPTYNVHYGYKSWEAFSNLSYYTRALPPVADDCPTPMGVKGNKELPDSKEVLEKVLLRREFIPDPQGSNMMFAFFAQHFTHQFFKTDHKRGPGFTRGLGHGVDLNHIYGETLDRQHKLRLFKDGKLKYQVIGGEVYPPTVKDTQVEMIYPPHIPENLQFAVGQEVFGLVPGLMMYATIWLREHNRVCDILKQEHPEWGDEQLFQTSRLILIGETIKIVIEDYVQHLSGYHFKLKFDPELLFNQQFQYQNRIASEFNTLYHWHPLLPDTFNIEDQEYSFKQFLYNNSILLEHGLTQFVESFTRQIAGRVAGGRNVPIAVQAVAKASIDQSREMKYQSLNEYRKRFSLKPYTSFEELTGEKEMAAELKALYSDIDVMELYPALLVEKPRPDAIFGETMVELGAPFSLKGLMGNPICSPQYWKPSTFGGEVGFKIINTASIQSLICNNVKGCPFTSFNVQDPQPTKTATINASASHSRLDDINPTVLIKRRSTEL
Description: as §1

db/db mice = conditions: db/db mice, 50 mg/kg/day orally, 14 days, FIG. 16A

SMILES | less affinity for PPAR-gamma (PPAR-gamma) | effect on insulin-stimulated glucose uptake (3T3-L1 adipocytes; 5 μM with increasing insulin, FIG. 20B) | % Glucose uptake 0.1 μm (3T3-L1 adipocytes; 0.1 μm, average of quadruplicate ± SD) | % Glucose uptake 1.0 μm (3T3-L1 adipocytes; 1.0 μm, average of quadruplicate ± SD) | inhibition of the phosphorylation of IkappaB (IkappaB) | inhibition of the activation of NF-kB (p65) (NF-kB p65) | maximal triglyceride accumulated, increase over control (3T3-L1 fibroblasts) [fold] | glycogen synthesis, decrease (HepG2 cells; HepG2, 10 μM, 48 h, FIG. 25A) [fold] | increase in glycogen synthesis over baseline (HepG2 cells; HepG2, concentrations higher than 30 μM, ± SD, data not shown) [fold] | inhibition of COX-1 activity (COX-1) | inhibition of COX-2 activity (PGE2 production) (COX-2) | blood glucose lowering effect (db/db mice)
CC(C)C[C@H](NC(=O)OCC1c2ccccc2-c2ccccc21)C(=O)O [FMOC-L-Leucine] | approximately 400 fold | – | – | – | – | – | – | – | – | – | – | –
CN(CCOc1ccc(CC2SC(=O)NC2=O)cc1)c1ccccn1 (stereo not drawn) [rosiglitazone, reference compound] | – | additive, not synergistic | 204.2 ± 8.5 % basal of the non treated cells | 214.7 ± 36.5 % basal of the non treated cells | not | did not inhibit | 9.22 | 0.9 | 1.4±0.06 | Neither compound inhibited | not | dramatic, comparable blood glucose lowering effects
